The subject of test [1] is MCF-7 cells. Kind of test: MCF-7 Cell Proliferation Assay (14C-thymidine, agonist and antagonist mode). Conditions: number in brackets = number of tests, NA = no detected activity at test concentration. It is filed as cell-based. The procedure:
This assay was run according to the procedure described by Welshons, et al., (Breast Cancer Res. Treat., 1987, 10(2), 169-75), with minor modification.
Briefly, MCF-7 cells (from Dr. C. Jordan, Northwestern University) were maintained in RPMI 1640 phenol red free medium (Gibco) in 10% FBS (Hyclone), supplemented with bovine insulin and non-essential amino acid (Sigma). The cells were initially treated with 4-hydoxyltamoxifen (10^−8 M) and let stand at 37° C. for 24 hours. Following this incubation with tamoxifen, the cells were treated with compounds at various concentrations.
Compounds to be tested in the agonist mode were added to the culture media at varying concentrations. Compounds to be treated in the antagonist mode were prepared similarly, and 10 nM 17β-estradiol was also added to the culture media. The cells were incubated for 24 hours at 37° C. Following this incubation, 0.1 μCi of ^14C-thymidine (56 mCi/mmol, Amersham) was added to the culture media and the cells were incubated for an additional 24 hours at 37° C. The cells were then washed twice with Hank's buffered salt solution (HBSS) (Gibco) and counted with a scintillation counter. The increase in the ^14C-thymidine in the compound treated cells relative to the vehicle control cells were reported as percent increase in cell proliferation.

Test [2] concerns the target T1, human estrogen receptor α (Homo sapiens, UniProt P03372).
T1 construct: purchased Panvera
T1 sequence (P03372 1-595): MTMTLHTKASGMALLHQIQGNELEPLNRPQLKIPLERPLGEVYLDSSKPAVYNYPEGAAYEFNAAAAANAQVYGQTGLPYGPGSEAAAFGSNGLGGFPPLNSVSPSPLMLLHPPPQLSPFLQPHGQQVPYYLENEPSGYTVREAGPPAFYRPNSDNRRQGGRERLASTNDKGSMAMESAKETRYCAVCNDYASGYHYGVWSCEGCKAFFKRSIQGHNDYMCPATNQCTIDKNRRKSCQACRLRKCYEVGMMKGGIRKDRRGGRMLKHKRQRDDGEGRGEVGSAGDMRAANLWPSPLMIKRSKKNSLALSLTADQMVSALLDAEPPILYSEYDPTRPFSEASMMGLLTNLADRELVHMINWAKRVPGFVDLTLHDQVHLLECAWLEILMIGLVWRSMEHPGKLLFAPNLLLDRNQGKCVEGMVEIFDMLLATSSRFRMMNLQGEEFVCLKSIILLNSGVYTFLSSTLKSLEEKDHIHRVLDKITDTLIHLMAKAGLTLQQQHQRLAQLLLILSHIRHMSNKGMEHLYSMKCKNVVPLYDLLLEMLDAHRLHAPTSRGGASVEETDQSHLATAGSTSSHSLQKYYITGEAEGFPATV
The test is described as follows: Estrogen Receptor α Flash Plate Assay (binding of radiolabeled estrogen). Here is the method: This assay monitors binding of radiolabeled estrogen to the estrogen receptor. It is performed on a BioMek 2000 (Beckman). Plates are read in a scintillation counter (Packard TopCount), with decreased counts an indication of binding of a compound to the receptor.
The plate was sealed and incubated at 4° C. overnight.
On day two, each well was washed three times with 200 μL PBS, pH 7.2, at room temperature. To each well was then added 98 μL radiolabeled estrogen (0.5 nM, which equals 6 nCi for a 120 Ci/mmol batch, Amersham), diluted in ESB and 5 mM dithiothreitol (DTT). To individual wells were then added 2.5 μL test compound diluted in 30% (v/v) dimethyl sulfoxide/50 mM HEPES, pH 7.5. The wells were mixed three times by aspiration, the plate sealed and incubated at room temperature for one hour. The wells were then counted for 1 min in a TopCount scintillation counter (Packard).

In test [3] the test system is Ishikawa cells. The test is described as follows: Alkaline Phosphatase Assay in Human Endometrial Ishikawa Cells (agonist and antagonist mode). It is filed as cell-based. To be noted: number in brackets = number of tests, NA = no detected activity at test concentration; for IC50: antagonist mode with 10 nM 17β-estradiol; for EC50: agonist mode. The procedure:
This assay was run according to the procedure described by Albert et a., Cancer Res, […], 50(11), 330-6-10, with minor modification.
Ishikawa cells (from ATCC) were maintained in DMEM/F12 (1:1) phenol red free medium (Gibco) supplemented with 10% calf serum (Hyclone). 24 hours prior to testing, the medium was changed to DMEM/F12 (1:1) phenol red free containing 2% calf serum.
Compounds to be tested in the agonist mode were added to the culture media at varying concentrations. Compounds to be treated in the antagonist mode were prepared similarly, and 10 nM 17β-estradiol was also added to the culture media. The cells were then incubated at 37° C. for 3 days. On the fourth day, the media was remove, 1 volume of 1× Dilution Buffer (Clontech) was added to the well followed by addition of 1 volume of Assay Buffer (Clontech). The cells were then incubated at room temperature for 5 minutes. […] The cells were incubated at room temperature for 10 minutes and then quantified on a luminometer. The increase of chemiluminescence over vehicle control was used to calculate the increase in alkaline phosphatase activity.

[4] abbreviates: antagonist mode with 10 nM 17β-estradiol.
Where [5] appears, read: flash plate binding, 0.5 nM radiolabeled estrogen, number in brackets = No. of determinations, NA = no detected activity at test concentration, read-out: Estrogen Receptor α in μM (No.).
The mark [6] stands for this setting: Homo sapiens, MCF7, antagonist mode with 10 nM 17β-estradiol.

“And” between values parts separate entries of the source, which are not always exact repeats. Equal values may be shown once. Read-outs that look alike come from different tables or passages of the source.

`c1ccc2c(c1)OC(c1ccc(OCCN3CCCCC3)cc1)C1=C2COc2ccccc21` (single isomer, unassigned) [Compound 170, 5R*-(−)-1-{2-[4-(5,11-Dihydro-chromeno[4,3-c]chromen-5-yl)-phenoxy]-ethyl}-piperidine]: the IC50 in test [1] (setting [4]) was at least 10000 nM; in test [2] (setting [5]), 0.16 µM; in test [3] it was 2660 nM.
Taken in the same sequence, the figures for `CC(C)(C)C(=O)Oc1ccc2c(c1)OCC1=C2C(c2ccc(OCCN3CCCCC3)cc2)Oc2cc(O)ccc21` (single isomer, unassigned) [Compound 90, 2,2-Dimethyl-propionic acid 8-hydroxy-5S*(+)-[4-(2-piperidin-1-yl-ethoxy)-phenyl]-5,11-dihydro-chromeno[4,3-c]chromen-2-yl ester] were 1670 nM, 0.0066 µM and 57 nM.
For `OCCCOc1ccc(C2Oc3cc(O)ccc3C3=C2c2ccc(O)cc2OCC3)cc1` (racemic) [Compound 183], the IC50 was at least 10000 nM in test [1] (setting [4]), 0.014 µM in test [2] (setting [5]) and 3000 nM in test [3].
Consider `Oc1ccc2c(c1)OCCC1=C2C(c2ccc(OCCN3CCCCCC3)cc2)Oc2cc(F)ccc21` (single isomer, unassigned) [Compound 177], for which the IC50 in test [1] (setting [4]) stood at 3000 nM; in test [2] (setting [5]) it was 0.04 µM; in test [3] it was 259 nM.
In the case of `CC(C)(C)C(=O)Oc1ccc2c(c1)OCC1=C2C(c2ccc(OCCN3CCCCC3)cc2)Oc2ccccc21` (single isomer, unassigned) [Compound 171, 2,2-Dimethyl-propionic acid 5S*-(+)-[4-(2-piperidin-1-yl-ethoxy)-phenyl]-5,11-dihydro-chromeno[4,3-c]chromen-2-yl ester], the IC50 was 5100 nM in test [1] (setting [4]), 0.14 µM in test [2] (setting [5]) and 56.7 nM in test [3] (Homo sapiens).
Turning to `CC(C)(C)C(=O)Oc1ccc2c(c1)OC(c1ccc(OCCN3CCCCC3)cc1)C1=C2COc2cc(OC(=O)C(C)(C)C)ccc21` (single isomer, unassigned) [Compound 24], the EC50 in test [1] (agonist mode) and in test [3] was over 10000 nM throughout. The IC50 in test [1] (setting [4]) is 672 nM; in test [2] (setting [5]), 5.95 µM; in test [3], 66 nM.
On to `CC(C)(C)C(=O)Oc1ccc2c(c1)OC(c1ccc(OCCN3CCCCC3)cc1)C1=C2COc2cc(OC(=O)C(C)(C)C)ccc21` (stereo not shown) [Compound 22, 2,2-Dimethyl-propionic acid, 8-(2,2-dimethyl-propionyloxy)-5-[4-(2-piperidin-1-yl-ethoxy)-phenyl]-5,11-dihydro-chromeno[4,3-c]chromen-2-yl ester], for which the EC50 (in general, the concentration at which the effect is half-maximal) in test [1] (Homo sapiens, MCF7, agonist mode) is over 10000 nM; in test [3] (Homo sapiens) it was over 10000 nM. Further, the IC50 in test [1] (setting [6]) came to 662 nM; in test [2] (setting [5]) it was 3.45 µM; in test [3] (Homo sapiens), 53.5 nM.
For the molecule `CC(C)N(CCOc1ccc(C2Oc3cc(O)ccc3C3=C2c2ccc(O)cc2OCC3)cc1)C(C)C` (single isomer, unassigned) [Compound 168], the figures for the IC50 in test [1] (setting [4]), in test [2] (setting [5]) and in test [3] were 220 nM, 0.0042 µM and 287 nM, respectively.
Regarding `Oc1ccc2c(c1)OC(c1ccc(OCCN3CCCCCC3)cc1)C1=C2CCOc2ccccc21` (single isomer, unassigned) [Compound 154], the results for the IC50 in test [1] (setting [4]), in test [2] (setting [5]) and in test [3] were 1440 nM, 0.0042 µM and 167 nM, respectively.
Regarding `COc1ccc2c(c1)OCC1=C2C(c2ccc(OCCN3CCCCC3)cc2)Oc2cc(OC(=O)C(C)(C)C)ccc21` (single isomer, unassigned) [Compound 175], the values for the IC50 in test [1] (setting [6]), in test [2] (setting [5]) and in test [3] (Homo sapiens) were 5000 nM, 0.66 µM and 300 nM, respectively.
For `COc1ccc2c(c1)OCCC1=C2C(c2ccc(OCCN3CCCCC3)cc2)Oc2cc(O)ccc21` (single isomer, unassigned) [Compound 196, 2-Methoxy-5S*-(−)-[4-(2-piperidin-1-yl-ethoxy)-phenyl]-11,12-dihydro-5H-6,13-dioxa-benzo[3,4]cyclohepta[1,2-a]naphthalen-8-ol], the IC50 is over 1000 nM in test [1] (setting [4]), 0.055 µM in test [2] (setting [5]) and 229 nM in test [3].
Taken in the same sequence, the figures for `CN(C)CCOc1ccc(C2Oc3cc(O)ccc3C3=C2c2ccccc2OCC3)cc1` (single isomer, unassigned) [Compound 149] were 1360 nM, 0.015 µM and 1020 nM.
`Oc1ccc2c(c1)OCCC1=C2C(c2ccc(OCCN3CCCCCC3)cc2)Oc2cc(F)ccc21` (stereo not shown) [Compound 174, 5-[4-(2-Azepan-1-yl-ethoxy)-phenyl]-8-fluoro-11,12-dihydro-5H-6,13-dioxa-benzo[3,4]cyclohepta[1,2-a]naphthalen-2-ol]: the IC50 was 1740 nM in test [1] (setting [6]); 0.0015 µM and 0.0013 µM in test [2]; 135 nM in test [3] (Homo sapiens).
In the case of `Oc1ccc2c(c1)OC(c1ccc(OCCN3CCCCCC3)cc1)C1=C2CCOc2ccccc21` (single isomer, unassigned) [Compound 155], the results for the IC50 in test [1] (setting [4]), in test [2] (setting [5]) and in test [3] were over 10000 nM, 0.088 µM and 3770 nM, respectively.
On to `Oc1ccc2c(c1)OC(c1ccc(OCCN3CCCCC3)cc1)C1=C2CCOc2ccccc21` (single isomer, unassigned) [Compound 131], for which the IC50 in test [1] (setting [4]) is over 10000 nM; in test [2] (setting [5]), 0.061 µM; in test [3], 4940 nM.
Turning to `Oc1ccc2c(c1)OCCC1=C2C(c2ccc(OCCN3CCCCCC3)cc2)Oc2ccccc21` (single isomer, unassigned) [Compound 153], the IC50 stood at 1270 nM in test [1] (setting [4]), 0.0066 µM in test [2] (setting [5]) and 509 nM in test [3].
Turning to `CN(C)CCOc1ccc(C2Oc3cc(O)ccc3C3=C2c2ccccc2OCC3)cc1` (single isomer, unassigned) [Compound 147], the IC50 in test [1] (setting [4]) is over 10000 nM; in test [2] (setting [5]), 0.18 µM; in test [3], over 10000 nM.
On to `c1ccc2c(c1)O[C@@H](c1ccc(OCCN3CCCCC3)cc1)C1=C2COc2ccccc21` (stereo in doubt) [Compound 169, 5S*-(+)-1-{2-[4-(5,11-Dihydro-chromeno[4,3-c]chromen-5-yl)-phenoxy]-ethyl}-piperidine], for which the IC50 was at least 10000 nM in test [1] (setting [4]), 0.072 µM in test [2] (setting [5]) and 830 nM in test [3].
With `Oc1ccc2c(c1)OC(c1ccc(OCCN3CCCCC3)cc1)C1=C2CCOc2cc(O)ccc21` (single isomer, unassigned) [Compound 99, 5R*-(+)-[4-(2-Piperidin-1-yl-ethoxy)-phenyl]-11,12-dihydro-5H-6,13-dioxa-benzo[3,4]cyclohepta[1,2-a]naphthalene-2,8-diol], the IC50 in test [1] (setting [4]) is 182 nM; in test [2] (setting [5]), 0.0039 µM; in test [3] it was 130 nM.

These data come from patent publication US7105679B2, “Heteroatom containing tetracyclic derivatives as selective estrogen receptor modulators” (priority 2001, dated 2006).
